# Data from PMC12015759, “A humanized Gs-coupled DREADD for circuit and behavior modulation” (Frontiers in Cellular Neuroscience, 2025).
# Tests used:
# PD mice [1] = test: Rotarod test in 6-OHDA PD mice with bilateral AAV8R12-G88P7-hM3Ds-2A-EYFP; type: in vivo, mouse; conditions: CNO treatment
# Method: (§1) Animals were anesthetized via intraperitoneal injection of pentobarbital sodium (Sigma) and placed into a stereotactic frame (RWD Instruments). An incision was made to expose the skull and locate the site above the SNr (from bregma: AP –3.4 mm, ML 1.3 mm, DV –4.8 mm). A hole in the skull was drilled above the SNr using an electrodrill (RWD Instruments). The AAV8R12-G88P7-hM3Ds-2A-EYFP vector (200 nL volume) was injected using a 10 μL 33-Gauge Hamilton syringe at a rate of 20 nL/min. The syringe was withdrawn 10 min after finishing injection. Behavioral experiments are performed at least 3 weeks after virus injection.
# (§2) A PD mouse model was generated using 6-OHDA. Desipramine (Sigma) was administrated (25 mg/kg) via intraperitoneal injection 30 min before a 6-OHDA injection. The stereotactic injection procedure was identical to the AAV injection described above. A volume of 800 nL 6-OHDA (5 mg/mL) was injected into each side of striatum (from bregma: AP 0.5 mm, ML ±1.5 mm, DV –3.2 mm) at a rate of 100 nL/min. One week after 6-OHDA lesions were generated, AAV injections were administered, and behavioral tests were conducted 3 weeks after AAV injections.
# After 3 days of habituation to the environment and operator, the mice were placed on a suspended rod apparatus (Xinruan) and trained at speeds of 10, 20, 30 and 40 rpm/min for 2 days. […]
# hM3Ds [2] = target: T1, hM3Ds (Homo sapiens, UniProt P20309, A178S/A239G/A490L/DEL258-409/DEL413-482/I254V/INS485[…]/K179L/K183A/K256R/K487Q/L174F/L483Q/R172S/R177Q/R180L/T175R/T182R/Y149C/Y255F)
# T1 sequence (P20309 with tags, fused parts or gaps Y149C/R172S/L174F/T175R/R177Q/A178S/K179L/R180L/T182R/K183A/A239G/I254V/Y255F/K256R/DEL258-409/DEL413-482/L483Q/INS485[…]/K487Q/A490L): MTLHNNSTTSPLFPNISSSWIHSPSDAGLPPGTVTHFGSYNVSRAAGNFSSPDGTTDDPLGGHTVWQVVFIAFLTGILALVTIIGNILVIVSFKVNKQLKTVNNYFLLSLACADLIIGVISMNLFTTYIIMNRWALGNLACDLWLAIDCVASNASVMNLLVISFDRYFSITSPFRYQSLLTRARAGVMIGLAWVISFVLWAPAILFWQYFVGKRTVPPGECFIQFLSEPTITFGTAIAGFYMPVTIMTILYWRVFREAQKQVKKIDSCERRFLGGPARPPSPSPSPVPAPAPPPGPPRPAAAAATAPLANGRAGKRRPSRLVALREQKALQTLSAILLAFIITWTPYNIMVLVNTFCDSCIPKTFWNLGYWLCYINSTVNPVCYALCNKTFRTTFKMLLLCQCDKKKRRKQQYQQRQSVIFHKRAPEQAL
# Method: (§3) As for the cAMP assay, HEK293T cells (ATCC) were seeded in 6-well plate with DMEM containing 10% fetal bovine serum. Upon reaching ~80% confluency, cells were transfected with DREADDs plasmids (30 ng), pCRE-Luc (GeneBank accession: AF053461.1, 600 ng) and pRL-SV40 (GeneBank accession: AF025845.2, 150 ng). The following day, cells were redistributed from 6-well plates to white opaque 96-well plates pre-coated with poly-L-lysine (Solarbio).
# (§4) The plates were then placed back in the cell incubator for 6 h. The cAMP level was detected using a Dual Glo Luciferase Reporter Gene Assay Kit (YEASEN) following the manufacturer’s protocol. The data of each well was presented as the ratio of firefly luciferase luminescence to renilla luciferase luminescence.
# (§5) We next examined whether the chemogenetic receptor ligand, CNO, could stimulate hM3-ti23-Ds and hM3Ds and induce up-regulation of cAMP level. We co-transfected HEK293T cells with engineered receptors and the reporter vector, pCRE-Luc, which contains a cAMP response element-driven firefly luciferase (Luc) ([Bokar et al., 1988]); pRL-SV40 encoding renilla luciferase was simultaneously transfected as a transfection efficiency control.
# hM3-ti23-Ds = target: T2, hM3-ti23-Ds (Homo sapiens, UniProt P20309, A178S/A239G/A490L/D442R/DEL262-438/DEL444-462/DEL467-485/E259S/I254V/INS257[…]/K179L/K183A/K256R/K465M/K487H/L174F/L463M/R172S/R177Q/R180M/T175R/T182R/T258A/Y149C)
# T2 sequence (P20309 with tags, fused parts or gaps Y149C/R172S/L174F/T175R/R177Q/A178S/K179L/R180M/T182R/K183A/A239G/I254V/K256R/INS257[…]/T258A/E259S/DEL262-438/D442R/DEL444-462/L463M/K465M/DEL467-485/K487H/A490L): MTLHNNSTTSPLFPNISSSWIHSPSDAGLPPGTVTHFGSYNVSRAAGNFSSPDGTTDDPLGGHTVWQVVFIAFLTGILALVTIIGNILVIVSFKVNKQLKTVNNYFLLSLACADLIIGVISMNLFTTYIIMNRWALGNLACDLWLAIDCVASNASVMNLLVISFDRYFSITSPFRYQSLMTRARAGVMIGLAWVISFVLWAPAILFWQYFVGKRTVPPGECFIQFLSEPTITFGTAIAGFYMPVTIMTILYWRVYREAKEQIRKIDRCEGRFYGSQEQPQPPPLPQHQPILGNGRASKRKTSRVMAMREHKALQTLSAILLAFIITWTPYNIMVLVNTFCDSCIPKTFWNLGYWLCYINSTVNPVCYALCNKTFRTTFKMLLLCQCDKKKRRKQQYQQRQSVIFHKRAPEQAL
# Method: as §3, §4, §5
# PD mice [3] = test: Open field test in 6-OHDA PD mice with bilateral AAV8R12-G88P7-hM3Ds-2A-EYFP; type: in vivo, mouse; conditions: CNO 0.3 mg/kg
# Method: as §1
# as §2, with “One week after 6-OHDA lesions were generated, AAV injections were administered, and behavioral tests were conducted 3 weeks after AAV injections.” left out
# Mice were tested in an open field box arena with length, width and height of 50 × 50 × 50 cm. […] The animals were placed into the test box 30 min after injection and video was recorded for 10 min. The number of rotations, distance traveled, and time spent immobile were then quantified using Anymaze software and the video recordings.
# mice = test: Open field test after unilateral AAV8R12-G88P7-hM3Ds-2A-EYFP injection into the SNr; type: in vivo, mouse; conditions: CNO 0.3 mg/kg intraperitoneal vs saline, unilateral hM3Ds in D1-MSNs
# Method: as §1
# Mice were tested in an open field box arena with length, width and height of 50 × 50 × 50 cm. The animals underwent 3 days of habituation to the environment and experimenter and 1 day of habituation to the test apparatus. On the test day, the animals were injected with saline or CNO (0.3 mg/kg). The animals were placed into the test box 30 min after injection and video was recorded for 10 min. The number of rotations, distance traveled, and time spent immobile were then quantified using Anymaze software and the video recordings.
# hM3Ds [4] = target: T1, hM3Ds; test: Ca2+ imaging (GCaMP6s) in hM3Ds-transfected HEK293T cells; type: cell-based; design: hM3Ds was subcloned into pAAV-CMV-EYFP to replace EYFP; expressed in transfected cells; host or cells: HEK293T; conditions: CNO 10 μM, 10 min
# Method: As for the Ca^2+ imaging assay, HEK293T cells (ATCC) were seeded in 24-well plate with DMEM containing 10% fetal bovine serum. Upon reaching ~80% confluency, cells were cotransfected with pAAV-CAG-GCaMP6s (0.1 μg), and pAAV-CMV-hM3Ds or pAAV-CMV-hM3Dq (0.1 μg).
# 48 h after transfection, the medium in each well was replaced with 400 μL CNO (10 μM) solution, or with 400 μL vehicle (medium only). […] Cell fluorescence were imaged under microscopy and quantified using ImageJ.
# hM3Ds-M6 (K407R) = hM3Ds-M6 (K407R) (Homo sapiens, UniProt P20309, A178S/A239G/A490L/DEL258-409/DEL413-482/I254V/INS485[…]/K179L/K183A/K256R/K487Q/K567R/L174F/L483Q/R172S/R177Q/R180L/T175R/T182R/Y149C/Y255F); conditions: CNO at 10 μM, compared to hM3Ds
# Sequence of hM3Ds-M6 (K407R) (P20309 with tags, fused parts or gaps with the stated changes): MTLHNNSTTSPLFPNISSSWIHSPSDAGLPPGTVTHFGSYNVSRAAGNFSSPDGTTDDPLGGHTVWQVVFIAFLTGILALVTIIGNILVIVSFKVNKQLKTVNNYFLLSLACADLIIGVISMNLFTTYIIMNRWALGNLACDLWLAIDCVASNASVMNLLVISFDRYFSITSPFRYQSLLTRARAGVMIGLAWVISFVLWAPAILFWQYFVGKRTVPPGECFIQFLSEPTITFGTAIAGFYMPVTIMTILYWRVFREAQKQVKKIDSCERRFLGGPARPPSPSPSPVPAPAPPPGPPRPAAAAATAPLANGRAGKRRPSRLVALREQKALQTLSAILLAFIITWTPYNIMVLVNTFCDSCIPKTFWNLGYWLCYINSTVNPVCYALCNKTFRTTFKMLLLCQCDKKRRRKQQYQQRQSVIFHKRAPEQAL
# Method: as §3, §4
# hM3Ds-M3 (D404G) = hM3Ds-M3 (D404G) (Homo sapiens, UniProt P20309, A178S/A239G/A490L/D564G/DEL258-409/DEL413-482/I254V/INS485[…]/K179L/K183A/K256R/K487Q/L174F/L483Q/R172S/R177Q/R180L/T175R/T182R/Y149C/Y255F); conditions: CNO at 10 μM, compared to hM3Ds
# Sequence of hM3Ds-M3 (D404G) (P20309 with tags, fused parts or gaps with the stated changes): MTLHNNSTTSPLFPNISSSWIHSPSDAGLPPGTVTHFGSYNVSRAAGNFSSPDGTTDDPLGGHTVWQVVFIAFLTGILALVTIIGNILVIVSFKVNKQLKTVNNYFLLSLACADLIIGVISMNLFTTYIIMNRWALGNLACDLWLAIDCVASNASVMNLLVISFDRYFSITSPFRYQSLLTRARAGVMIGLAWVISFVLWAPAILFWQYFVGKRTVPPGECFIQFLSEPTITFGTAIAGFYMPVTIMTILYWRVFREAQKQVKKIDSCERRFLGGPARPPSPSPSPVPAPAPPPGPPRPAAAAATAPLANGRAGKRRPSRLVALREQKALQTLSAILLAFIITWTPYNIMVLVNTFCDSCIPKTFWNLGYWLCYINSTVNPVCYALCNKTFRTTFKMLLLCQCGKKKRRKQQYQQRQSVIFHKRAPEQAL
# Method: as §3, §4
# hM3Ds-M2 (Q402R) = hM3Ds-M2 (Q402R) (Homo sapiens, UniProt P20309, A178S/A239G/A490L/DEL258-409/DEL413-482/I254V/INS485[…]/K179L/K183A/K256R/K487Q/L174F/L483Q/Q562R/R172S/R177Q/R180L/T175R/T182R/Y149C/Y255F); conditions: CNO at 10 μM, compared to hM3Ds
# Sequence of hM3Ds-M2 (Q402R) (P20309 with tags, fused parts or gaps with the stated changes): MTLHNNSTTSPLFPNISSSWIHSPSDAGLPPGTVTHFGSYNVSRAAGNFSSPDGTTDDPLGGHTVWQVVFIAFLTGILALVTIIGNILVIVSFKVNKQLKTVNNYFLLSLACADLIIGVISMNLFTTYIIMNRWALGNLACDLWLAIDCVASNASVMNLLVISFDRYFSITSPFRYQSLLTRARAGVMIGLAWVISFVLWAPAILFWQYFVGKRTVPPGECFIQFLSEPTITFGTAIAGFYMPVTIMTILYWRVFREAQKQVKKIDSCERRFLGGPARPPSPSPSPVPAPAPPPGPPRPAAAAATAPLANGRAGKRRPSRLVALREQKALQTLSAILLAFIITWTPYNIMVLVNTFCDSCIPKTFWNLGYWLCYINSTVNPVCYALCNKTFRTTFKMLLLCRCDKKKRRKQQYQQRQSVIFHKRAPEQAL
# Method: as §3, §4
# hM3Ds-M5 (K406R) = hM3Ds-M5 (K406R) (Homo sapiens, UniProt P20309, A178S/A239G/A490L/DEL258-409/DEL413-482/I254V/INS485[…]/K179L/K183A/K256R/K487Q/K566R/L174F/L483Q/R172S/R177Q/R180L/T175R/T182R/Y149C/Y255F); conditions: CNO at 10 μM, compared to hM3Ds
# Sequence of hM3Ds-M5 (K406R) (P20309 with tags, fused parts or gaps with the stated changes): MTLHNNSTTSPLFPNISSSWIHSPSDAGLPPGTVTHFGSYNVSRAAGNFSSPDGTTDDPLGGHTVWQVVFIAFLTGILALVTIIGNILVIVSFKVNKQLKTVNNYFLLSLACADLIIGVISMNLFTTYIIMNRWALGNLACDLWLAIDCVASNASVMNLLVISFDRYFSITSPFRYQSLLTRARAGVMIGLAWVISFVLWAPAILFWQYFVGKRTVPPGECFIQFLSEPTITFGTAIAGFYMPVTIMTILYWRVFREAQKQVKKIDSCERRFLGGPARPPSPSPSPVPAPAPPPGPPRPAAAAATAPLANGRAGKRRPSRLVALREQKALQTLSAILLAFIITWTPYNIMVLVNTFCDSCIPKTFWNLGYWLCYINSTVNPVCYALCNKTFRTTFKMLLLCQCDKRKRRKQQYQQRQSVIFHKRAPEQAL
# Method: as §3, §4
# hM3Ds-M4 (K405R) = hM3Ds-M4 (K405R) (Homo sapiens, UniProt P20309, A178S/A239G/A490L/DEL258-409/DEL413-482/I254V/INS485[…]/K179L/K183A/K256R/K487Q/K565R/L174F/L483Q/R172S/R177Q/R180L/T175R/T182R/Y149C/Y255F); conditions: CNO at 10 μM, compared to hM3Ds
# Sequence of hM3Ds-M4 (K405R) (P20309 with tags, fused parts or gaps with the stated changes): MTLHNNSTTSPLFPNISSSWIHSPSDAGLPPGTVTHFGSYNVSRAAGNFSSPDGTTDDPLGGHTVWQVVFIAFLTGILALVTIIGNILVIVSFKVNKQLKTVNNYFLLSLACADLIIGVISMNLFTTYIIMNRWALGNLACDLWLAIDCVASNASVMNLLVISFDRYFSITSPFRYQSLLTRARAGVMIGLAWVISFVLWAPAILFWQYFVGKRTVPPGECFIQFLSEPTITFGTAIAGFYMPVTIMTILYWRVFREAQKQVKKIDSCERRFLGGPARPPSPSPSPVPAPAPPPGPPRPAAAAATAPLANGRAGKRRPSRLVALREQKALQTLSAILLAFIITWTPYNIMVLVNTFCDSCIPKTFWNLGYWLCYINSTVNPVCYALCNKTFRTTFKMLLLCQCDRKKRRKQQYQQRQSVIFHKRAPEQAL
# Method: as §3, §4
# rM3Ds = target: T3, rM3Ds (Rattus norvegicus, UniProt P08483, A177S/A238G/A489L/DEL261-437/DEL441-478/E258S/I253V/I483M/INS256[…]/K178L/K182A/K255R/K484R/K486H/L173F/L482A/M480V/R171S/R176Q/R179M/S481M/T174R/T181R/T257A/Y148C); test: cAMP assay (CRE-luciferase reporter) in HEK293T cells expressing rM3Ds; type: cell-based; conditions: CNO on rM3Ds, HEK293T, 6 h, firefly/renilla luciferase ratio
# T3 construct: host or cells: HEK293T
# T3 sequence (P08483 with tags, fused parts or gaps Y148C/R171S/L173F/T174R/R176Q/A177S/K178L/R179M/T181R/K182A/A238G/I253V/K255R/INS256[…]/T257A/E258S/DEL261-437/DEL441-478/M480V/S481M/L482A/I483M/K484R/K486H/A489L): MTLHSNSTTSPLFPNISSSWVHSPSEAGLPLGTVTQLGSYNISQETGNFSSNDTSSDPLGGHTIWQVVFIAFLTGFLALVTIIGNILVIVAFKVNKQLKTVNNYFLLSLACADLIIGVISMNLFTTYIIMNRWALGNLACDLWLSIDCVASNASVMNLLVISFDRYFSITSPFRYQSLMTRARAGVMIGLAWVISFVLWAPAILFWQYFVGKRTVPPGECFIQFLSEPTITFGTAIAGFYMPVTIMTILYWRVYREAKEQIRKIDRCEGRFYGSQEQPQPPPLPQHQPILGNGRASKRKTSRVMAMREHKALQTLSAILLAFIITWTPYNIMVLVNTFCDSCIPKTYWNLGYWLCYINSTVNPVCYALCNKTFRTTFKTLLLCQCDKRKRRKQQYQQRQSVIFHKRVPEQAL
smiles,measurement,setting,value
"C[N+]1([O-])CCN(C2=Nc3cc(Cl)ccc3Nc3ccccc32)CC1 [CNO, clozapine N-oxide]",latency to fall (rotarod),PD mice [1],partial recovery of motor skills
same,fold change in luciferase activity,"hM3Ds [2]; CNO at 10 μM, hM3Ds, compared to rM3Ds",comparable fold change
same,EC50,"hM3Ds [2]; CNO on hM3Ds, HEK293T, 6 h, firefly/renilla luciferase ratio",1.26 ± 0.2 nM
same,cAMP response,"hM3Ds [2]; hM3Ds, HEK293T",dose-dependently increased the cAMP response
same,fold change in luciferase activity,"hM3-ti23-Ds; CNO at 10 μM, compared to rM3Ds and hM3Ds",lower fold change
same,cAMP response,hM3-ti23-Ds; HEK293T,dose-dependently increased the cAMP response
same,mean distance traveled,PD mice [3],reversed
same,time spent immobile,PD mice [3],reversed
same,contralateral rotation,mice,more contralateral rotation
same,total distance traveled,mice,no difference
same,calcium rise,hM3Ds [4],did not induce detectable levels of calcium rise
same,fold change in luciferase activity,hM3Ds-M6 (K407R),reduced luciferase activity compared to hM3Ds
same,fold change in luciferase activity,hM3Ds-M3 (D404G),reduced luciferase activity compared to hM3Ds
same,fold change in luciferase activity,hM3Ds-M2 (Q402R),reduced luciferase activity compared to hM3Ds
same,fold change in luciferase activity,hM3Ds-M5 (K406R),reduced luciferase activity compared to hM3Ds
same,fold change in luciferase activity,hM3Ds-M4 (K405R),reduced luciferase activity compared to hM3Ds
same,EC50,rM3Ds,2.39 ± 0.25 nM
